In doi:10.1101/2024.08.19.608619, “Discovery of potent SARS-CoV-2 nsp3 macrodomain inhibitors uncovers lack of translation to cellular antiviral response” (bioRxiv, 2024):
Where two headings read alike, the source gives them in different places.

What was measured:
COX1(h) = molecular target: T1, COX1(h) (Homo sapiens, UniProt P23219); test: In vitro CEREP profiling, COX1(h); assay type: biochemical; details: test compound concentration 10 uM, Enzyme and Cell-based assays; for inhibition at 10 µM: read-out: perc_inhibition: % inhibition of control enzyme activity, COX1(h)
T1 construct: purchased Eurofins Cerep (SafetyScreen44), recognised from the panel format
T1 sequence (P23219 24-599): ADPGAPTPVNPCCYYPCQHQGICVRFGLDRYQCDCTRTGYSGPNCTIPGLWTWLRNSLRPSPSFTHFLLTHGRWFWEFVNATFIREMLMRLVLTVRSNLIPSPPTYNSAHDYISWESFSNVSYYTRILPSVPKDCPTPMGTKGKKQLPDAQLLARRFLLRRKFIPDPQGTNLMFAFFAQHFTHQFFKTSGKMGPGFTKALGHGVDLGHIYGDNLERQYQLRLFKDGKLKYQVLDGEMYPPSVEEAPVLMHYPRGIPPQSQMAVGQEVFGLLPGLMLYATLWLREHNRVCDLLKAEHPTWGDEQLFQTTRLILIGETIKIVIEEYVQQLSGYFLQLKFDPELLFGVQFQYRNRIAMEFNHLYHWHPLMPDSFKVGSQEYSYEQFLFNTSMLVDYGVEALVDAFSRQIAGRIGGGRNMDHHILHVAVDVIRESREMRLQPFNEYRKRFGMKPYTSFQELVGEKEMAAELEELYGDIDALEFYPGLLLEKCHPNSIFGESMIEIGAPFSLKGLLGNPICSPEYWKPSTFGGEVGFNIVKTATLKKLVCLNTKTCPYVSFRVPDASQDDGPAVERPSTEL
Text: (§1) Supplement media-1.zip/Safety_Panel_Profile.csv, table | column: perc_inhibition

alpha2A (h) = molecular target: T2, alpha2A (h) (Homo sapiens, UniProt P08913); test: In vitro CEREP profiling, alpha2A (h) (antagonist radioligand); assay type: binding; details: test compound 10 uM; for inhibition at 10 µM: read-out: perc_inhibition (% inhibition of the binding of a ligand specific for each target)
T2 construct: purchased Eurofins Cerep (SafetyScreen44), recognised from the panel format
T2 sequence (P08913 1-465): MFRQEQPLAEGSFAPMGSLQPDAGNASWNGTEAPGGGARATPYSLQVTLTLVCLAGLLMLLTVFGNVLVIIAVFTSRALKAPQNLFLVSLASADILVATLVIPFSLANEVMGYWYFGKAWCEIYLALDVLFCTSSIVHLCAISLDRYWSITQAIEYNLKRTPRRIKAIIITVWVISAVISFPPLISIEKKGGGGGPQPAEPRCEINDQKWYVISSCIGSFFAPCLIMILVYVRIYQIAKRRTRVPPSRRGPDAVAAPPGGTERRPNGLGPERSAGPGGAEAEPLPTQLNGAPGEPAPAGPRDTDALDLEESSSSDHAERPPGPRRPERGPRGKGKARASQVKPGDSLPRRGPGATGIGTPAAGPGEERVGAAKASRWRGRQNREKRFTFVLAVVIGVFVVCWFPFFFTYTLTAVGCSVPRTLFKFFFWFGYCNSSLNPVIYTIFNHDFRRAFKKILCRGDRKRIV
Text: as §1

H2 (h) = molecular target: T3, H2 (h) (Homo sapiens, UniProt P25021); test: In vitro CEREP profiling, H2 (h) (antagonist radioligand); assay type: binding; details: test compound concentration 10 uM; for inhibition at 10 µM: read-out: perc_inhibition (% inhibition of the binding of a ligand specific for each target)
T3 construct: purchased Eurofins Cerep (SafetyScreen44), recognised from the panel format
T3 sequence (P25021 whole entry): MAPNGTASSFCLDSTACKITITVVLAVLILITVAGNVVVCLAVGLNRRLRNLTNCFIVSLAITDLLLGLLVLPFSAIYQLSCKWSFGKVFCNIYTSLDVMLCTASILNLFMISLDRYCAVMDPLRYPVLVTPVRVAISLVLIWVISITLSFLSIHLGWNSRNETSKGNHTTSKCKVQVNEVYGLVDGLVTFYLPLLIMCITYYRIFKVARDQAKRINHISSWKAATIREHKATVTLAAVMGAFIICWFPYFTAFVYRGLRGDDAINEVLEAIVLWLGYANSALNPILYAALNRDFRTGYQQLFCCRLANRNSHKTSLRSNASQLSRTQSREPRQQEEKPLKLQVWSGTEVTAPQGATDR
Text: as §1

PDE3A (h) = molecular target: T4, PDE3A (h) (Homo sapiens, UniProt Q14432); test: In vitro CEREP profiling, PDE3A (h); assay type: biochemical; details: test compound concentration 10 uM, Enzyme and Cell-based assays; for inhibition at 10 µM: read-out: perc_inhibition: % inhibition of control enzyme activity, PDE3A (h)
T4 construct: purchased Eurofins Cerep (SafetyScreen44), recognised from the panel format
T4 sequence (Q14432 whole entry): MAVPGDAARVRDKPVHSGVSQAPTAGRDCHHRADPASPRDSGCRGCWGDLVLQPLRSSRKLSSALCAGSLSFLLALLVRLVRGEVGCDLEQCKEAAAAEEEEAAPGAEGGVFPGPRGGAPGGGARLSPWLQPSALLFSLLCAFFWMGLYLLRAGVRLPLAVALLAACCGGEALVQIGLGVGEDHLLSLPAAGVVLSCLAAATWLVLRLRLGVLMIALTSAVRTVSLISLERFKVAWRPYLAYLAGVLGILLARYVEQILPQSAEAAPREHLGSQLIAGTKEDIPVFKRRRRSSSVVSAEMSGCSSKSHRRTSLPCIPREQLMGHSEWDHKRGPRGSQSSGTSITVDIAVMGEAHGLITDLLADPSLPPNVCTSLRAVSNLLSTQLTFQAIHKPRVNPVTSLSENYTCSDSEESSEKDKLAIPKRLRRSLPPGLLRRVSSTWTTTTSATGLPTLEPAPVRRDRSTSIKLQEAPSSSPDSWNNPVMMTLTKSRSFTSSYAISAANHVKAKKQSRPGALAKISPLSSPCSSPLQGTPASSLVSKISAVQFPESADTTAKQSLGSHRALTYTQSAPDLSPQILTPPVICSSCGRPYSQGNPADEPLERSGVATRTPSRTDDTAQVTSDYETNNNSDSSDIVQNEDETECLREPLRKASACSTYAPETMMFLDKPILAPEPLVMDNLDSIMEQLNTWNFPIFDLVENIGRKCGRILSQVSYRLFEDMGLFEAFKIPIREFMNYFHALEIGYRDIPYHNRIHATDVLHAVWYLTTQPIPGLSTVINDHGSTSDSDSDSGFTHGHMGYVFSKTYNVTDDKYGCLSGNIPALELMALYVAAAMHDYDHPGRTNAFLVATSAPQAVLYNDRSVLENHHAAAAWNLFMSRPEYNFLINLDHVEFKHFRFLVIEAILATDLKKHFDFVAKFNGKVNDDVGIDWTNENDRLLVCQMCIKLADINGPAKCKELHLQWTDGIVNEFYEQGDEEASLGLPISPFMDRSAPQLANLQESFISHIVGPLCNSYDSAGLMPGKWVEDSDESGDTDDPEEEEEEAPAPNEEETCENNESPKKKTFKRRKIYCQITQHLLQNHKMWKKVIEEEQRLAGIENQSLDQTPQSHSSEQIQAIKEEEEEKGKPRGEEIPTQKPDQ
Text: as §1

beta2 (h) = molecular target: T5, beta2 (h) (Homo sapiens, UniProt P07550); test: In vitro CEREP profiling, beta2 (h) (antagonist radioligand); assay type: binding; details: test compound 10 uM; for inhibition at 10 µM: read-out: perc_inhibition (% inhibition of the binding of a ligand specific for each target)
T5 construct: purchased Eurofins Cerep (SafetyScreen44), recognised from the panel format
T5 sequence (P07550 whole entry): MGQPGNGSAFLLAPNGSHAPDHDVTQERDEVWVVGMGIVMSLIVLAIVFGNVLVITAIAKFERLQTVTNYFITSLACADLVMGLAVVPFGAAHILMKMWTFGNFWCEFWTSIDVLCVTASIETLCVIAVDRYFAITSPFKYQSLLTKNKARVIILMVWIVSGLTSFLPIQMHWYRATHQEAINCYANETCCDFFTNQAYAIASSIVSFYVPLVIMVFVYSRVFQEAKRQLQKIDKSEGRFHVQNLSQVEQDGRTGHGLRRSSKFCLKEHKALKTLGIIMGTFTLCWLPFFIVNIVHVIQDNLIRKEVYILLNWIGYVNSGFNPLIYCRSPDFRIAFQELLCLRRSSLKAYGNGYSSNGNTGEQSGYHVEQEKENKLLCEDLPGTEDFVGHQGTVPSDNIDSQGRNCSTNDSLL
Text: as §1

M1 (h) = molecular target: T6, M1 (h) (Homo sapiens, UniProt P11229); test: In vitro CEREP profiling, M1 (h) (antagonist radioligand); assay type: binding; details: test compound concentration 10 uM; for inhibition at 10 µM: read-out: perc_inhibition (% inhibition of the binding of a ligand specific for each target)
T6 construct: purchased Eurofins Cerep (SafetyScreen44), recognised from the panel format
T6 sequence (P11229 1-460): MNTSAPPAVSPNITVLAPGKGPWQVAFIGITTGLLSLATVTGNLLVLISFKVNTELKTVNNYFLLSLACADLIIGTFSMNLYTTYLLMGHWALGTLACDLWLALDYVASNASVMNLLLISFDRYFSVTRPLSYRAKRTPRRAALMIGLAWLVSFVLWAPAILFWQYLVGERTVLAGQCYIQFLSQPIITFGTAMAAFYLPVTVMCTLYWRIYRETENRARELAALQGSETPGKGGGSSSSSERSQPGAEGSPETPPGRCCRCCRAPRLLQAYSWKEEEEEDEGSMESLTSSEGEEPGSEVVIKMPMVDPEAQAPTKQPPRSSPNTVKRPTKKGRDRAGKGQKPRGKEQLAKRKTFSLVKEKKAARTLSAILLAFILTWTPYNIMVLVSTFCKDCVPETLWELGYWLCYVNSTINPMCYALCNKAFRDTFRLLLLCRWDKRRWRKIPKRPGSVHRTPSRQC
Text: as §1

M3 (h) = molecular target: T7, M3 (h) (Homo sapiens, UniProt P20309); test: In vitro CEREP profiling, M3 (h) (antagonist radioligand); assay type: binding; details: test compound concentration 10 uM; for inhibition at 10 µM: read-out: perc_inhibition (% inhibition of the binding of a ligand specific for each target)
T7 construct: purchased Eurofins Cerep (SafetyScreen44), recognised from the panel format
T7 sequence (P20309 whole entry): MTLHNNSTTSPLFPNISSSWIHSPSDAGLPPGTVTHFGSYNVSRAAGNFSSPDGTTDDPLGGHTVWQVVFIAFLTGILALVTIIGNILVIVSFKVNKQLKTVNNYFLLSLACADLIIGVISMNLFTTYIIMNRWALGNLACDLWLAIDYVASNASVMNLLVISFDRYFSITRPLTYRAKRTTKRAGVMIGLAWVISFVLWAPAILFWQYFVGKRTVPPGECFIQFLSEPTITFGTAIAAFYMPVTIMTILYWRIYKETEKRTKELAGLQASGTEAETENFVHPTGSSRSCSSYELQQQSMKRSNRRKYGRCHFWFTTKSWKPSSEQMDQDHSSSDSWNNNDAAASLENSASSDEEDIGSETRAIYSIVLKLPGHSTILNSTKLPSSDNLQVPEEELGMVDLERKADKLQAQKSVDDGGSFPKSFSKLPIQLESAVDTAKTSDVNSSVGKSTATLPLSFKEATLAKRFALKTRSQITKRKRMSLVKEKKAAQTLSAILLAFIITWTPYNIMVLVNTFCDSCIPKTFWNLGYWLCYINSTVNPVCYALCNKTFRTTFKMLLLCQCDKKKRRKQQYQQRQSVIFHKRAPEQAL
Text: as §1

AR(h) = test: In vitro CEREP profiling, AR(h) (agonist radioligand); assay type: binding, human; details: test compound concentration 10 uM
Text: as §1

[1] = molecular target: T8, N neuronal alpha4beta2 (h) (Homo sapiens, UniProt P17787+P43681); test: In vitro CEREP profiling, N neuronal alpha4beta2 (h) (agonist radioligand); assay type: binding; details: test compound concentration 10 uM; for inhibition at 10 µM: read-out: perc_inhibition (% inhibition of the binding of a ligand specific for each target)
T8 construct: purchased Eurofins Cerep (SafetyScreen44), recognised from the panel format
T8 sequence (P43681 29-627 limits assumed): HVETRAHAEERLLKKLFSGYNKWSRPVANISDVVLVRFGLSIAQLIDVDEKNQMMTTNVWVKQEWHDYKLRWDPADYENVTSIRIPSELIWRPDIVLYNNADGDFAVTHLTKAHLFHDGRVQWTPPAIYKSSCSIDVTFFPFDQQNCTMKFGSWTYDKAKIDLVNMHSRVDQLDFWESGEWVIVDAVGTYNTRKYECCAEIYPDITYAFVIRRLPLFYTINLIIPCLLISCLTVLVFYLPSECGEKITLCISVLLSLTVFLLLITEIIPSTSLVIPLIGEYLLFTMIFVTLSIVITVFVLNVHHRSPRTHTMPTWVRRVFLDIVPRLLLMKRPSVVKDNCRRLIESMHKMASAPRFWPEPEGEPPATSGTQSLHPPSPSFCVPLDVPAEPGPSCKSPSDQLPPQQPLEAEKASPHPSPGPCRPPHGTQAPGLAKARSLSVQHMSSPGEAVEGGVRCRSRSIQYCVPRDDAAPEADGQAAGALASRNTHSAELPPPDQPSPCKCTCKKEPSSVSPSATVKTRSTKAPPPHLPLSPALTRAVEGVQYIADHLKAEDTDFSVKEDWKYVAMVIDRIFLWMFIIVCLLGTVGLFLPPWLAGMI
T8 sequence (P17787 26-502): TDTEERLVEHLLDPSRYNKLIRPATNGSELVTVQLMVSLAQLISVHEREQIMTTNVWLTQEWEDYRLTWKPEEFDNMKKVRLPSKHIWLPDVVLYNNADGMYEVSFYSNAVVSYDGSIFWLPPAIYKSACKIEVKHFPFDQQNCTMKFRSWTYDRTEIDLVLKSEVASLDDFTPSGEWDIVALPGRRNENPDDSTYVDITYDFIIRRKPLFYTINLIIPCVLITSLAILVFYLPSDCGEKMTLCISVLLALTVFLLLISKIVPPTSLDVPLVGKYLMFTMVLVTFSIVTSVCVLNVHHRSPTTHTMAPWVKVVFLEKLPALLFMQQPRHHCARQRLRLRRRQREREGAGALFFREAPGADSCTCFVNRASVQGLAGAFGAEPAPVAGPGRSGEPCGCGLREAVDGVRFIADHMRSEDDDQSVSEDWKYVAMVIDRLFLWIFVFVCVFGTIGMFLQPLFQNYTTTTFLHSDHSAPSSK
Text: as §1

acetylcholinesterase (h) = molecular target: T9, acetylcholinesterase (h) (Homo sapiens, UniProt P22303); test: In vitro CEREP profiling, acetylcholinesterase (h); assay type: biochemical; details: test compound concentration 10 uM, Enzyme and Cell-based assays; for inhibition at 10 µM: read-out: perc_inhibition: % inhibition of control enzyme activity, acetylcholinesterase (h)
T9 construct: purchased Eurofins Cerep (SafetyScreen44), recognised from the panel format
T9 sequence (P22303 32-614): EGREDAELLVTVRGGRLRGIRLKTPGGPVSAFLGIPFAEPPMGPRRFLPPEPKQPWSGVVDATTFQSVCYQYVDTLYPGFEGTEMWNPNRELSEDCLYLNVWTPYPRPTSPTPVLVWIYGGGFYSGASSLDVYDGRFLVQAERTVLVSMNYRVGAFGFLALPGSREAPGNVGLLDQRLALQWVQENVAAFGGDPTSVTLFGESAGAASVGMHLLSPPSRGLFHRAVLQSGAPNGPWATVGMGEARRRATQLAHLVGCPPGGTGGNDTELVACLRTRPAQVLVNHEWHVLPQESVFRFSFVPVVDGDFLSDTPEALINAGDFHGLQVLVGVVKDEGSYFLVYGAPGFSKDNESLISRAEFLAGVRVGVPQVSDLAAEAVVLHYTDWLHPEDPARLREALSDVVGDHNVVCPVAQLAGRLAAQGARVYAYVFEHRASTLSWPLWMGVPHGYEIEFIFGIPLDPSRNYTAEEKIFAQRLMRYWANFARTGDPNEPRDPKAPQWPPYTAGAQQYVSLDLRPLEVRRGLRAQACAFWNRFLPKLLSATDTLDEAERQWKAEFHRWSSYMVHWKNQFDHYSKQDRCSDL
Text: as §1

mu (MOP) (h) = molecular target: T10, mu (MOP) (h) (Homo sapiens, UniProt P35372); test: In vitro CEREP profiling, mu (MOP) (h) (agonist radioligand); assay type: binding; details: test compound concentration 10 uM; for inhibition at 10 µM: read-out: perc_inhibition (% inhibition of the binding of a ligand specific for each target)
T10 construct: purchased Eurofins Cerep (SafetyScreen44), recognised from the panel format
Text: as §1

ETA (h) = molecular target: T11, ETA (h) (Homo sapiens, UniProt P25101); test: In vitro CEREP profiling, ETA (h) (agonist radioligand); assay type: binding; details: test compound 10 uM; for inhibition at 10 µM: read-out: perc_inhibition (% inhibition of the binding of a ligand specific for each target)
T11 construct: purchased Eurofins Cerep (SafetyScreen44), recognised from the panel format
T11 sequence (P25101 21-427): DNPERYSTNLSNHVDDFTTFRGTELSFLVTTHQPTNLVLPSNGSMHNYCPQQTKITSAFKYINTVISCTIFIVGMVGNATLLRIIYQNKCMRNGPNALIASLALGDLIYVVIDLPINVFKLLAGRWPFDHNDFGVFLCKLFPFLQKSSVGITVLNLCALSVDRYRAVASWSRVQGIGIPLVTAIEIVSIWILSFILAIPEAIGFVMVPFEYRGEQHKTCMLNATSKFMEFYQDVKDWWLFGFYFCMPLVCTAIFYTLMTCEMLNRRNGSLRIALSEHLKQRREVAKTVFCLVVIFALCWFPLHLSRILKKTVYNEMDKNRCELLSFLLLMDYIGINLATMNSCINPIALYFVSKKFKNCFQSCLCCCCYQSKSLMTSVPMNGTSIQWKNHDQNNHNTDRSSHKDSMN
Text: as §1

NaV1.5 = NaV1.5 (Homo sapiens, UniProt Q14524); test: In vitro NaV1.5 cardiotoxicity; details: top test concentration 30 uM
Text: Supplement media-1.zip/Cardiotoxicity.csv, table | column: ic50_rest_state; ic50_use_dep_block; perc_inhibition_rest_state; perc_inhibition_use_dep_block

[2] = NaV1.5, rest state, read-out: ic50_rest_state
[3] = NaV1.5, use dependent block, read-out: ic50_use_dep_block

| SMILES | perc_inhibition: % inhibition of control enzyme activity, COX1(h) (COX1(h)) | perc_inhibition (% inhibition of the binding of a ligand specific for each target) (alpha2A (h)) | perc_inhibition (% inhibition of the binding of a ligand specific for each target) (H2 (h)) | perc_inhibition: % inhibition of control enzyme activity, PDE3A (h) (PDE3A (h)) | perc_inhibition (% inhibition of the binding of a ligand specific for each target) (beta2 (h)) | perc_inhibition (% inhibition of the binding of a ligand specific for each target) (M1 (h)) | perc_inhibition (% inhibition of the binding of a ligand specific for each target) (M3 (h)) | perc_inhibition (% inhibition of the binding of a ligand specific for each target) (AR(h)) | perc_inhibition (% inhibition of the binding of a ligand specific for each target) [1] | perc_inhibition: % inhibition of control enzyme activity, acetylcholinesterase (h) (acetylcholinesterase (h)) | perc_inhibition (% inhibition of the binding of a ligand specific for each target) (mu (MOP) (h)) | perc_inhibition (% inhibition of the binding of a ligand specific for each target) (ETA (h)) | perc_inhibition_rest_state (NaV1.5; NaV1.5, rest state) | IC50 (NaV1.5; [2]) | perc_inhibition_use_dep_block (NaV1.5; NaV1.5, use dependent block) | IC50 (NaV1.5; [3]) | inhibition at 10 µM (COX1(h)) | inhibition at 10 µM (alpha2A (h)) | inhibition at 10 µM (H2 (h)) | inhibition at 10 µM (PDE3A (h)) | further results |
| --- | --- | --- | --- | --- | --- | --- | --- | --- | --- | --- | --- | --- | --- | --- | --- | --- | --- | --- | --- | --- | --- |
| CC(C)[C@H](Nc1ncnc2[nH]ccc12)c1ccc2c(c1)S(=O)(=O)CCC2 [ASAP-0008674] | 85% | 10% | -6% | 29% | -1% | 19% | 5% | 0% | 1% | 12% | 8% | -1% | 19.0% | > 30 µM | 29.0% | > 30 µM | – | – | – | – | – |
| CC(C)[C@H](Nc1ncnc2[nH]c(-c3cnn(C)c3C#N)cc12)c1ccc2c(n1)OCCO2 [ASAP-0010715] | -39% | 7% | -16% | 37% | 3% | 7% | -15% | -3% | 2% | 15% | 15% | 42% | 33.0% | > 30 µM | 35.0% | > 30 µM | – | – | – | – | – |
| CC(C)[C@@H](Nc1ncnc2[nH]c(-c3cnn(C)c3C#N)cc12)c1ccc2c(n1)OCCO2 [ASAP-0010716] | -34% | 9% | -11% | 37% | 3% | 8% | 1% | 12% | -2% | 22% | 77% | 5% | 27.0% | > 30 µM | 25.0% | > 30 µM | – | – | – | – | – |
| CNCc1cc(-c2cc3c(N[C@@H](c4ccc5c(c4)S(=O)(=O)CCC5)C(C)C)ncnc3[nH]2)co1 [ASAP-0011176] | -6% | 15% | -3% | -5% | 6% | 47% | 5% | 10% | 0% | 10% | -5% | -1% | 10.0% | > 30 µM | 16.0% | > 30 µM | – | – | – | – | – |
| CC(C)C(Nc1ncnc2[nH]c(C(=O)NC3CCN(C)C3)cc12)c1ccc2c(c1)S(=O)(=O)CCC2 (centres unmarked) [ASAP-0011198] | – | – | – | – | – | – | – | -5% | – | – | – | – | – | > 30 µM | – | > 30 µM | 44% | 6% | -9% | 4% | inhibition at 10 µM (beta2 (h)): -3%; inhibition at 10 µM (M1 (h)): 17%; inhibition at 10 µM (M3 (h)): -9%; inhibition at 10 µM [1]: -2%; inhibition at 10 µM (acetylcholinesterase (h)): 28%; inhibition at 10 µM (mu (MOP) (h)): 7%; inhibition at 10 µM (ETA (h)): -6%; inhibition at 30 µM (NaV1.5; NaV1.5, rest state, read-out: perc_inhibition_rest_state): 11%; inhibition at 30 µM (NaV1.5; NaV1.5, use dependent block, read-out: perc_inhibition_use_dep_block): 11% |
| Cc1nn(C)cc1-c1cc2c(NC(c3ccc4c(c3)S(=O)(=O)CCC4)C(C)C)ncnc2[nH]1 (centres unmarked) [ASAP-0011446] | – | – | – | – | – | – | – | 6% | – | – | – | – | – | – | – | – | -23% | 5% | -4% | 46% | inhibition at 10 µM (beta2 (h)): -7%; inhibition at 10 µM (M1 (h)): 11%; inhibition at 10 µM (M3 (h)): -9%; inhibition at 10 µM [1]: -2%; inhibition at 10 µM (acetylcholinesterase (h)): 13%; inhibition at 10 µM (mu (MOP) (h)): 28%; inhibition at 10 µM (ETA (h)): -4% |
